According to patent US20250163104A1, “MACROCYCLIC IMMUNOMODULATORS” (priority 2021, published 2025):
*1 amine or outer side, *2 acyl side, *3 side chain or, on linkers, in order; H or OH if unused. Where a SMILES comes first, the peptide text is derived from it. Bridges are numbered along the chain shown (N, C = ends). [ ]: non-standard residue; d: D form. The star is where a group is joined. Bip = N[C@@H](Cc1ccc(-c2ccccc2)cc1)C(=O)O; Phe(3-Me) = Cc1cccc(C[C@H](N)C(=O)O)c1; γGlu = O=C(O)[C@H](CCC(=O)[*:2])N[*:1]; Cha = N[C@@H](CC1CCCCC1)C(=O)O; Carboxymethyl = O=C(O)C*; Orn = NCCC[C@H](N)C(=O)O; Pra = C#CC[C@H](N)C(=O)O; Dab = NCC[C@H](N)C(=O)O; Dap = NC[C@H](N)C(=O)O; Propargyl = C#CC*

biological target: T1, human PD-1 / PD-L1-Ig binding on Jurkat cell line over-expressing human PD-1 (Jurkat-PD-1) (Homo sapiens, UniProt Q15116); experiment: Jurkat-PD-1 Cell Binding High-Content Screening Assay (CBA); format: cell-based; conditions: Jurkat-PD-1 cells, PE-labeled PD-L1-Ig 20 nM final; read-out: Jurkat HPD1_PDL1 IC50
T1 construct: expressed in transfected cells; host or cells: Jurkat
T1 sequence (Q15116 25-288): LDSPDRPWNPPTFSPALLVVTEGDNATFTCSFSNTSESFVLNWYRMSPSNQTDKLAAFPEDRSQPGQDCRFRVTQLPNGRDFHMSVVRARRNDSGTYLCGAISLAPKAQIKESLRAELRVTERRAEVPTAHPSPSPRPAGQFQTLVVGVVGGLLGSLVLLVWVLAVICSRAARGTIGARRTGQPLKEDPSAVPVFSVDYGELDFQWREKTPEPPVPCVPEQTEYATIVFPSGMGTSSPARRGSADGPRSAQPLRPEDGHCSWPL
Method in brief: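 Compounds were preincubated with Jurkat-hPD-1 cells in DMEM plus 10% fetal calf serum for 2 h at 37° C. Phycoerythrin-labeled PD-L1-Ig (20 nM final) was then added for 1 hour. Cells were fixed in 4% paraformaldehyde with Hoechst 33342, and bound fluorescence was quantified by high-content imaging.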

| SMILES | IC50 |
| --- | --- |
| Cc1cccc(C[C@@H]2NC(=O)[C@H](CC(=O)O)NC(=O)[C@H](Cc3ccc(OCC(=O)O)cc3)NC(=O)[C@H](CN)NC(=O)CSC[C@@H](C(N)=O)NC(=O)[C@H]([C@@H](C)O)NC(=O)[C@H](C(C)C)NC(=O)[C@H](CC3CCCCC3)NC(=O)[C@H](CCN)NC(=O)[C@@H](CC(C)C)NC(=O)[C@H](CCCN)NC(=O)[C@H](Cc3ccc(OCC(=O)O)cc3)NC(=O)[C@H](Cc3ccc(-c4ccccc4)cc3)NC(=O)[C@H](Cc3ccc(OCC(=O)O)cc3)NC2=O)c1 [Compound 1783] ({CH2CO}-[Dap]Y(Carboxymethyl)D[Phe(3-Me)]Y(Carboxymethyl)[Bip]Y(Carboxymethyl)[Orn][dL][Dab][Cha]VTC-NH2; thioether N-14) | 0.0144 µM |
| Cc1cccc(C[C@@H]2NC(=O)[C@H](CC(=O)O)NC(=O)[C@H](Cc3ccc(OCC(=O)O)cc3)NC(=O)[C@H](CN)NC(=O)CSC[C@@H](C(N)=O)NC(=O)[C@H](CCC(=O)O)NC(=O)[C@H](C(C)C)NC(=O)[C@H](CC3CCCCC3)NC(=O)[C@H](CCN)NC(=O)[C@@H](CC(C)C)NC(=O)[C@H](CCCN)NC(=O)[C@H](Cc3ccc(OCC(=O)O)cc3)NC(=O)[C@H](Cc3ccc(-c4ccccc4)cc3)NC(=O)[C@H](Cc3ccc(OCC(=O)O)cc3)NC2=O)c1 [Compound 1784] ({CH2CO}-[Dap]Y(Carboxymethyl)D[Phe(3-Me)]Y(Carboxymethyl)[Bip]Y(Carboxymethyl)[Orn][dL][Dab][Cha]VEC-NH2; thioether N-14) | 0.0258 µM |
| Cc1cccc(C[C@@H]2NC(=O)[C@H](CC(=O)O)NC(=O)[C@H](Cc3ccc(OCC(=O)O)cc3)NC(=O)[C@H]([C@@H](C)O)NC(=O)CSC[C@@H](C(N)=O)NC(=O)[C@H](CC(=O)O)NC(=O)[C@H](C(C)C)NC(=O)[C@H](CC3CCCCC3)NC(=O)[C@H](CCN)NC(=O)[C@@H](CC(C)C)NC(=O)[C@H](CCCN)NC(=O)[C@H](Cc3ccc(OCC(=O)O)cc3)NC(=O)[C@H](Cc3ccc(-c4ccccc4)cc3)NC(=O)[C@H](Cc3ccc(OCC(=O)O)cc3)NC2=O)c1 [Compound 1798] ({CH2CO}-TY(Carboxymethyl)D[Phe(3-Me)]Y(Carboxymethyl)[Bip]Y(Carboxymethyl)[Orn][dL][Dab][Cha]VDC-NH2; thioether N-14) | 0.0267 µM |
| Cc1cccc(C[C@@H]2NC(=O)[C@H](CC(=O)O)NC(=O)[C@H](Cc3ccc(OCC(=O)O)cc3)NC(=O)[C@H]([C@@H](C)O)NC(=O)CSC[C@@H](C(N)=O)NC(=O)[C@H]([C@@H](C)O)NC(=O)[C@H](C(C)C)NC(=O)[C@H](CC3CCCCC3)NC(=O)[C@H](CCN)NC(=O)[C@@H](CC(C)C)NC(=O)[C@H](CCCN)NC(=O)[C@H](Cc3ccc(OCC(=O)O)cc3)NC(=O)[C@H](Cc3ccc(-c4ccccc4)cc3)NC(=O)[C@H](Cc3ccc(OCC(=O)O)cc3)NC2=O)c1 [Compound 1800] ({CH2CO}-TY(Carboxymethyl)D[Phe(3-Me)]Y(Carboxymethyl)[Bip]Y(Carboxymethyl)[Orn][dL][Dab][Cha]VTC-NH2; thioether N-14) | 0.0173 µM |
| Cc1cccc(C[C@@H]2NC(=O)[C@H](CC(=O)O)NC(=O)[C@H](Cc3ccc(OCC(=O)O)cc3)NC(=O)[C@H]([C@@H](C)O)NC(=O)CSC[C@@H](C(N)=O)NC(=O)[C@H](CCC(=O)O)NC(=O)[C@H](C(C)C)NC(=O)[C@H](CC3CCCCC3)NC(=O)[C@H](CCN)NC(=O)[C@@H](CC(C)C)NC(=O)[C@H](CCCN)NC(=O)[C@H](Cc3ccc(OCC(=O)O)cc3)NC(=O)[C@H](Cc3ccc(-c4ccccc4)cc3)NC(=O)[C@H](Cc3ccc(OCC(=O)O)cc3)NC2=O)c1 [Compound 1801] ({CH2CO}-TY(Carboxymethyl)D[Phe(3-Me)]Y(Carboxymethyl)[Bip]Y(Carboxymethyl)[Orn][dL][Dab][Cha]VEC-NH2; thioether N-14) | 0.0844 µM |
| C#CC[C@H](NC(=O)[C@H](CCC(=O)O)NC(=O)[C@@H]1CSCC(=O)N[C@@H](CN)C(=O)N[C@@H](Cc2ccc(OCC(=O)O)cc2)C(=O)N[C@@H](CC(=O)O)C(=O)N[C@@H](Cc2cccc(C)c2)C(=O)N[C@@H](Cc2ccc(OCC(=O)O)cc2)C(=O)N[C@@H](Cc2ccc(-c3ccccc3)cc2)C(=O)N[C@@H](Cc2ccc(OCC(=O)O)cc2)C(=O)N[C@@H](CCCN)C(=O)N[C@H](CC(C)C)C(=O)N[C@@H](CCN)C(=O)N[C@@H](CC2CCCCC2)C(=O)N[C@@H](C(C)C)C(=O)N[C@@H]([C@@H](C)O)C(=O)N1)C(N)=O [Compound 1803] ({CH2CO}-[Dap]Y(Carboxymethyl)D[Phe(3-Me)]Y(Carboxymethyl)[Bip]Y(Carboxymethyl)[Orn][dL][Dab][Cha]VTCE[Pra]-NH2; thioether N-14) | 0.0247 µM |
| C#CC[C@H](NC(=O)CC[C@H](NC(=O)[C@@H]1CSCC(=O)N[C@@H](CN)C(=O)N[C@@H](Cc2ccc(OCC(=O)O)cc2)C(=O)N[C@@H](CC(=O)O)C(=O)N[C@@H](Cc2cccc(C)c2)C(=O)N[C@@H](Cc2ccc(OCC(=O)O)cc2)C(=O)N[C@@H](Cc2ccc(-c3ccccc3)cc2)C(=O)N[C@@H](Cc2ccc(OCC(=O)O)cc2)C(=O)N[C@@H](CCCN)C(=O)N[C@H](CC(C)C)C(=O)N[C@@H](CCN)C(=O)N[C@@H](CC2CCCCC2)C(=O)N[C@@H](C(C)C)C(=O)N[C@@H]([C@@H](C)O)C(=O)N1)C(=O)O)C(N)=O [Compound 1804] ({CH2CO}-[Dap]Y(Carboxymethyl)D[Phe(3-Me)]Y(Carboxymethyl)[Bip]Y(Carboxymethyl)[Orn][dL][Dab][Cha]VTC[γGlu][Pra]-NH2; thioether N-14) | 0.0066 µM |
| C#CC[C@H](NC(=O)CC[C@H](NC(=O)[C@H](C)NC(=O)[C@@H]1CSCC(=O)N[C@@H](CN)C(=O)N[C@@H](Cc2ccc(OCC(=O)O)cc2)C(=O)N[C@@H](CC(=O)O)C(=O)N[C@@H](Cc2cccc(C)c2)C(=O)N[C@@H](Cc2ccc(OCC(=O)O)cc2)C(=O)N[C@@H](Cc2ccc(-c3ccccc3)cc2)C(=O)N[C@@H](Cc2ccc(OCC(=O)O)cc2)C(=O)N[C@@H](CCCN)C(=O)N[C@H](CC(C)C)C(=O)N[C@@H](CCN)C(=O)N[C@@H](CC2CCCCC2)C(=O)N[C@@H](C(C)C)C(=O)N[C@@H]([C@@H](C)O)C(=O)N1)C(=O)O)C(N)=O [Compound 1807] ({CH2CO}-[Dap]Y(Carboxymethyl)D[Phe(3-Me)]Y(Carboxymethyl)[Bip]Y(Carboxymethyl)[Orn][dL][Dab][Cha]VTCA[γGlu][Pra]-NH2; thioether N-14) | 0.0046 µM |
| C#CCOc1ccc(C[C@@H]2NC(=O)[C@H](Cc3cccc(C)c3)NC(=O)[C@H](CC(=O)O)NC(=O)[C@H](Cc3ccc(OCC(=O)O)cc3)NC(=O)[C@H](CN)NC(=O)CSC[C@@H](C(=O)N[C@@H](CCN)C(N)=O)NC(=O)[C@H](CCC(=O)O)NC(=O)[C@H](C(C)C)NC(=O)[C@H](CC3CCCCC3)NC(=O)[C@H](CCN)NC(=O)[C@@H](CC(C)C)NC(=O)[C@H](CCCN)NC(=O)[C@H](Cc3ccc(OCC(=O)O)cc3)NC(=O)[C@H](Cc3ccc(-c4ccccc4)cc3)NC2=O)cc1 [Compound 1812] ({CH2CO}-[Dap]Y(Carboxymethyl)D[Phe(3-Me)]Y(Propargyl)[Bip]Y(Carboxymethyl)[Orn][dL][Dab][Cha]VEC[Dab]-NH2; thioether N-14) | 0.0032 µM |

Now from value to compound:

| IC50 | SMILES |
| --- | --- |
| 0.0233 µM | Cc1cccc(C[C@@H]2NC(=O)[C@H](CC(=O)O)NC(=O)[C@H](Cc3ccc(OCC(=O)O)cc3)NC(=O)[C@H]([C@@H](C)O)NC(=O)CSC[C@@H](C(N)=O)NC(=O)[C@H](CC(N)=O)NC(=O)[C@H](C(C)C)NC(=O)[C@H](CC3CCCCC3)NC(=O)[C@H](CCN)NC(=O)[C@@H](CC(C)C)NC(=O)[C@H](CCCN)NC(=O)[C@H](Cc3ccc(OCC(=O)O)cc3)NC(=O)[C@H](Cc3ccc(-c4ccccc4)cc3)NC(=O)[C@H](Cc3ccc(OCC(=O)O)cc3)NC2=O)c1 [Compound 1797] ({CH2CO}-TY(Carboxymethyl)D[Phe(3-Me)]Y(Carboxymethyl)[Bip]Y(Carboxymethyl)[Orn][dL][Dab][Cha]VNC-NH2; thioether N-14) |
| 0.0335 µM | Cc1cccc(C[C@@H]2NC(=O)[C@H](CC(=O)O)NC(=O)[C@H](Cc3ccc(OCC(=O)O)cc3)NC(=O)[C@H]([C@@H](C)O)NC(=O)CSC[C@@H](C(N)=O)NC(=O)[C@H](CCC(N)=O)NC(=O)[C@H](C(C)C)NC(=O)[C@H](CC3CCCCC3)NC(=O)[C@H](CCN)NC(=O)[C@@H](CC(C)C)NC(=O)[C@H](CCCN)NC(=O)[C@H](Cc3ccc(OCC(=O)O)cc3)NC(=O)[C@H](Cc3ccc(-c4ccccc4)cc3)NC(=O)[C@H](Cc3ccc(OCC(=O)O)cc3)NC2=O)c1 [Compound 1799] ({CH2CO}-TY(Carboxymethyl)D[Phe(3-Me)]Y(Carboxymethyl)[Bip]Y(Carboxymethyl)[Orn][dL][Dab][Cha]VQC-NH2; thioether N-14) |
| 0.0095 µM | Cc1cccc(C[C@@H]2NC(=O)[C@H](CC(=O)O)NC(=O)[C@H](Cc3ccc(OCC(=O)O)cc3)NC(=O)[C@H]([C@@H](C)O)NC(=O)CSC[C@@H](C(N)=O)NC(=O)[C@H](CCCN)NC(=O)[C@H](C(C)C)NC(=O)[C@H](CC3CCCCC3)NC(=O)[C@H](CCN)NC(=O)[C@@H](CC(C)C)NC(=O)[C@H](CCCN)NC(=O)[C@H](Cc3ccc(OCC(=O)O)cc3)NC(=O)[C@H](Cc3ccc(-c4ccccc4)cc3)NC(=O)[C@H](Cc3ccc(OCC(=O)O)cc3)NC2=O)c1 [Compound 1802] ({CH2CO}-TY(Carboxymethyl)D[Phe(3-Me)]Y(Carboxymethyl)[Bip]Y(Carboxymethyl)[Orn][dL][Dab][Cha]V[Orn]C-NH2; thioether N-14) |
| 0.0007 µM | C#CCOc1ccc(C[C@@H]2NC(=O)[C@H](C(C)C)NC(=O)[C@H](CC3CCCCC3)NC(=O)[C@H](CCN)NC(=O)[C@@H](CC(C)C)NC(=O)[C@H](CCCN)NC(=O)[C@H](Cc3ccc(OCC(=O)O)cc3)NC(=O)[C@H](Cc3ccc(-c4ccccc4)cc3)NC(=O)[C@H](Cc3ccc(OCC(=O)O)cc3)NC(=O)[C@H](Cc3cccc(C)c3)NC(=O)[C@H](CC(=O)O)NC(=O)[C@H](Cc3ccc(OCC(=O)O)cc3)NC(=O)[C@H](Cc3cnc[nH]3)NC(=O)CSC[C@@H](C(=O)N[C@@H](CCN)C(N)=O)NC2=O)cc1 [Compound 1813] ({CH2CO}-HY(Carboxymethyl)D[Phe(3-Me)]Y(Carboxymethyl)[Bip]Y(Carboxymethyl)[Orn][dL][Dab][Cha]VY(Propargyl)C[Dab]-NH2; thioether N-14) |
